In ChEMBL document CHEMBL1134245, “Two novel and potent 3-[(o-methoxyphenyl)piperazinylethyl]-5-phenylthien” (Bioorg Med Chem Lett, 2001):

Key:
[1] = biological target: T1, Alpha-1B adrenergic receptor (Rattus norvegicus, UniProt P15823); test: In vitro functional activity at Alpha-1B adrenergic receptor in rat spleen; format: tissue-based; conditions: read-out: pA2 (converted)
T1 sequence (P15823 whole entry): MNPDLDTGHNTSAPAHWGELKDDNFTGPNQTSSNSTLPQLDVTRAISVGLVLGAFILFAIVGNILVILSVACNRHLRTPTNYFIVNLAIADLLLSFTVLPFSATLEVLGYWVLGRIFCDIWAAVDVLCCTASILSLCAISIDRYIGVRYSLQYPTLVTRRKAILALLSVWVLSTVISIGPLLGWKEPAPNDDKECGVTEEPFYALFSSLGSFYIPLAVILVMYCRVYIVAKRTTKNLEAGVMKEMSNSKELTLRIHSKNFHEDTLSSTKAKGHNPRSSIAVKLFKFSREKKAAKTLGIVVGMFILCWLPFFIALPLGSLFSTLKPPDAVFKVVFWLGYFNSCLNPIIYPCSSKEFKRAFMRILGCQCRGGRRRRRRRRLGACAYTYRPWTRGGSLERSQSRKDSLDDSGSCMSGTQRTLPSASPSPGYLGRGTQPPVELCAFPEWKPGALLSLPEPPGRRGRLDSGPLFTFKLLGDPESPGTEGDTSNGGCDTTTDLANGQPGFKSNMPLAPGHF

[2] = biological target: T2, Alpha-1A adrenergic receptor (Bos taurus, UniProt P18130); test: Binding affinity towards bovine Alpha-1A adrenergic receptor
T2 sequence (P18130 whole entry): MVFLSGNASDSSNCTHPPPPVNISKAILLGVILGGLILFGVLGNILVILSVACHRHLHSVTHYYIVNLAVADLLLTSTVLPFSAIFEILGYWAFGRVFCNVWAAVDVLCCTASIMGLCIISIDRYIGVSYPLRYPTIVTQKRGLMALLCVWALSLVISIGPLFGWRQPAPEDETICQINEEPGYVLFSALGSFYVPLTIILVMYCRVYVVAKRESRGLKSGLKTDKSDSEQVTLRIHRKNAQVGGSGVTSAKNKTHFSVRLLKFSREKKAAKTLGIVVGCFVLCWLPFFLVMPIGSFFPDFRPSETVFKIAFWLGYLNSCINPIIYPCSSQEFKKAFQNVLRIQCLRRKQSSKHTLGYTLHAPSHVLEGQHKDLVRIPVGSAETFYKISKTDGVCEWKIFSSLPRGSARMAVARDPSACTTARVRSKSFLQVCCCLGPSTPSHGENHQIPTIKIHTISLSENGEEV

[3] = biological target: T3, Alpha-1B adrenergic receptor (Homo sapiens, UniProt P35368); test: Binding affinity towards human Alpha-1B adrenergic receptor
T3 sequence (P35368 whole entry): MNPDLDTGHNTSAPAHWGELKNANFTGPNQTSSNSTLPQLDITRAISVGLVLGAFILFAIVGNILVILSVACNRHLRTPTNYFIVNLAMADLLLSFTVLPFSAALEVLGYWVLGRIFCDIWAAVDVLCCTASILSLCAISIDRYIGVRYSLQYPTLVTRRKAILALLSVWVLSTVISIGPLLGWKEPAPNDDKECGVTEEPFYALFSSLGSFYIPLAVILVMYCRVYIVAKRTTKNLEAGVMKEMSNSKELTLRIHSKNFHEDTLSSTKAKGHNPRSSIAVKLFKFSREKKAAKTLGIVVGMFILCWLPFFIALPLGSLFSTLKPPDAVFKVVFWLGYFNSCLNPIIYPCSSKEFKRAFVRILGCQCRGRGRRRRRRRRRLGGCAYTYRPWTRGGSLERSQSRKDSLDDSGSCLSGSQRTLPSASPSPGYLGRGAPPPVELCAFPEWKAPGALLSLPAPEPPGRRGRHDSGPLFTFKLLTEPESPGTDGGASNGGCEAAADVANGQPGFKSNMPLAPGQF

[4] = biological target: T4, Alpha-1D adrenergic receptor (Rattus norvegicus, UniProt P23944); test: Binding affinity towards rat Alpha-1D adrenergic receptor
T4 sequence (P23944 whole entry): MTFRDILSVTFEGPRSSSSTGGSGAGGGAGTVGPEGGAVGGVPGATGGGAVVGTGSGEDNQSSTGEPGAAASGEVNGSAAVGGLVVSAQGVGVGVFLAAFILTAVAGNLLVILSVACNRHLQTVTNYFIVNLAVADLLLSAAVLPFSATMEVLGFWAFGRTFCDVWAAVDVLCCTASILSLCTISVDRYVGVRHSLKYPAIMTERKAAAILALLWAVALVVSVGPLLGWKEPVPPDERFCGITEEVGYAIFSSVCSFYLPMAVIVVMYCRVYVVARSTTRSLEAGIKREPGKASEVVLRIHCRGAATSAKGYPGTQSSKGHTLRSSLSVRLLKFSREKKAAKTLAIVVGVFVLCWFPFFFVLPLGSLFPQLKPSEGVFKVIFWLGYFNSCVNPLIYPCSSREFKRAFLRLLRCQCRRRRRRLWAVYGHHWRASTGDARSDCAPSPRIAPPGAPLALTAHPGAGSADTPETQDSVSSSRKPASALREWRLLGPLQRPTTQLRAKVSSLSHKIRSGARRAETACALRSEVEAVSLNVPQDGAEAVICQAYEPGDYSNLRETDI

[5] = biological target: T5, Alpha-1A adrenergic receptor (Rattus norvegicus, UniProt P43140); test: Binding affinity towards rat Alpha-1A adrenergic receptor
T5 sequence (P43140 whole entry): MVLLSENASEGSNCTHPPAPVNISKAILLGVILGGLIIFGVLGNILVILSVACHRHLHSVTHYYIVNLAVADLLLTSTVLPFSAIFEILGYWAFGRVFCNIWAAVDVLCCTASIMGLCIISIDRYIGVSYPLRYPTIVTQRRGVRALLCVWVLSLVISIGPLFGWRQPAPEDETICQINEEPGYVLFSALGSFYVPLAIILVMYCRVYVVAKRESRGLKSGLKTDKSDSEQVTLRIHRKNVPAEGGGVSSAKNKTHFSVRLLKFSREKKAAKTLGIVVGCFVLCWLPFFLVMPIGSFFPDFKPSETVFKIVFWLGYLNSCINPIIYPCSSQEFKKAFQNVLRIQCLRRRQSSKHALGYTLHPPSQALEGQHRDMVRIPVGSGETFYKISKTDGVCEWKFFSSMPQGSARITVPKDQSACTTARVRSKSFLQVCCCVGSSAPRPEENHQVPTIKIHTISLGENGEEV

[6] = biological target: T6, Alpha-1D adrenergic receptor (Homo sapiens, UniProt P25100); test: Binding affinity towards human Alpha-1D adrenergic receptor
T6 sequence (P25100 whole entry): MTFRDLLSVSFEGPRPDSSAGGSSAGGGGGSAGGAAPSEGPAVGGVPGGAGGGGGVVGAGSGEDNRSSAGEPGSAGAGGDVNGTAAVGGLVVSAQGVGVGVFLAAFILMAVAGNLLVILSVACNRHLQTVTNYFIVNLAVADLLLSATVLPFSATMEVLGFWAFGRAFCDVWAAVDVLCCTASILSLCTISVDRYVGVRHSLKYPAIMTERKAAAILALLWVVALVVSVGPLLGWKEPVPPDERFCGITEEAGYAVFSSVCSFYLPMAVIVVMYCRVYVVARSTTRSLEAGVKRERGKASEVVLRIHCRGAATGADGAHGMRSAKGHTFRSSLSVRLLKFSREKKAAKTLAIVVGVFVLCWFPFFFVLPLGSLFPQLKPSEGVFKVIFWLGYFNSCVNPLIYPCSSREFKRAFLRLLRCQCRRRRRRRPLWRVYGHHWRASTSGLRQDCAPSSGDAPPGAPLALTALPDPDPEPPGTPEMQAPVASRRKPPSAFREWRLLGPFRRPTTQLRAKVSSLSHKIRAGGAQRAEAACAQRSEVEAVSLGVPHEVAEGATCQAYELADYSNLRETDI

[7] = biological target: T7, Alpha-1A adrenergic receptor (Homo sapiens, UniProt P35348); test: Binding affinity for human Alpha-1A adrenergic receptor
T7 sequence (P35348 whole entry): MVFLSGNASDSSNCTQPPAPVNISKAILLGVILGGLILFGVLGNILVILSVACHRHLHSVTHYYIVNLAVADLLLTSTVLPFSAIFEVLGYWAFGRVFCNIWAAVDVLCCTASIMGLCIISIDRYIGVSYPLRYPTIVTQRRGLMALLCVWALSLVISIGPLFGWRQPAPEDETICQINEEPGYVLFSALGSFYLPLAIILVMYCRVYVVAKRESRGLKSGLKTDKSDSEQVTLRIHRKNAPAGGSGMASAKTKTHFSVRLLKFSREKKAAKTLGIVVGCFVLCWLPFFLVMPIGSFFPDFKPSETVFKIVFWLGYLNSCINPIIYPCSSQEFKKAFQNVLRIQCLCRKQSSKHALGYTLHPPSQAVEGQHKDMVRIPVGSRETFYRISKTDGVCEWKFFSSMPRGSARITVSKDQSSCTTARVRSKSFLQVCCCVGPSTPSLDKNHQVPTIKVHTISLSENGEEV

SMILES | Kb [1] | Ki [2] | Ki [3] | Ki [4] | Ki [5] | Ki [6] | Ki [7]
COc1ccccc1N1CCN(CCn2c(=O)[nH]c3sc(C)c(-c4ccccc4)c3c2=O)CC1 | – | 0.377 nM | 3.7 nM | 0.251 nM | 1.97 nM | 0.466 nM | 2.63 nM
COc1ccccc1N1CCN(CCCn2c(=O)[nH]c3scc(-c4ccccc4)c3c2=O)CC1 | – | 1.25 nM | 15.8 nM | 8.2 nM | 9.58 nM | 7.15 nM | 8.49 nM
COc1ccccc1N1CCN(CCn2c(=O)[nH]c3sc(-c4ccccc4)cc3c2=O)CC1 | – | 0.248 nM | 1.86 nM | 0.361 nM | 0.578 nM | – | 0.868 nM
COc1ccccc1N1CCN(CCn2c(=O)c3c(-c4ccccc4)csc3n(C)c2=O)CC1 | – | 0.436 nM | – | 0.71 nM | 2.62 nM | – | 3.1 nM

Further lines, results first:

Kb [1] | Ki [2] | Ki [3] | Ki [4] | Ki [5] | Ki [6] | Ki [7] | SMILES
42.7 nM | 43 nM | 94.3 nM | – | – | – | – | COc1ccccc1N1CCN(CCN2C(=O)CC3(CCCC3)CC2=O)CC1 [BMY-7378]
– | 0.181 nM | 1.22 nM | 0.229 nM | 0.523 nM | 0.308 nM | 0.344 nM | COc1ccccc1N1CCN(CCn2c(=O)[nH]c3sccc3c2=O)CC1
– | – | – | – | – | 1.3 nM | 14900 nM | CC(CN1CCN(c2cc(F)c(F)cc2F)CC1)N1C(=O)CC2(CCCC2)CC1=O (single isomer, unassigned)
